# Measured values as given in patent US20250171414A1, “COMPOUND SERVING AS MASP-2 INHIBITOR, PHARMACEUTICAL COMPOSITION, PREPARATION METHOD THEREFOR, AND USE THEREOF” (WUHAN CREATERNA SCIENCE AND TECHNOLOGY CO., LTD., priority 2022, published 2025).
# pIC50: −log10 of the molar value.
# Key:
# human α-thrombin = human α-thrombin (Homo sapiens (Human), UniProt P00734); assay: Inhibition of thrombin, fluorescent peptide substrate Boc-VPR-AMC; format: biochemical
# Description: For thrombin assay, a fluorescent peptide substrate (Boc-VPR-AMC (R&D Systems)) was used and reacted in a buffer containing 20 mM Hepes (pH 7.4), 140 mM NaCl, and 0.1% Tween 20 at room temperature. Assay parameters were adjusted to make the assay linearly related to time, enzyme, and substrate concentration.
# The assay method for thrombin is as follows. Test compounds were each serially diluted with a buffer, and then 10 μL of compound solution was transferred to an assay plate. A buffer was added to the assay plate at 10 μL/well, and then a thrombin (human α-thrombin (BioPharm Lab.)) solution was added at 15 μL/well. A Boc-VPR-AMC substrate solution was added at 15 μL/well, and the resulting mixture was incubated for 60 min at 25° C. A terminating solution (0.1 M acetic acid) was added at 15 μL/well, and detection was performed within 30 min by using a SpectraMax i3x microplate reader.
# [1] = In vivo pharmacokinetic study in SD rats; conditions: clear
# Description: After adaptive feeding, the SPF SD rats were each subjected to a single administration of 1 mg/kg or 3 mg/kg of the compound of the present disclosure intragastrically or by tail vein bolus injection. Plasma was collected at specific time points after administration, and the concentration of the compound in plasma was detected by LC-MS/MS (AB Sciex Qtrap 4500).
# [2] = test system: lectin pathway (MBL) in human serum; assay: Inhibition of activity of lectin pathway (MBL) in human serum (WIESLAB Complement System MBL Pathway kit); format: biochemical; conditions: 1% human serum
# Description: The inhibition of the activity of the lectin pathway (MBL) in human serum by compounds was detected using a WIESLAB® Complement System MBL Pathway kit (SVAR, COMPLMP320). Test compounds were each serially diluted in a buffer (Diluent MP), and 1% human serum was incubated with the diluted compound solution for 15 min at room temperature. 100 μL of the mixture was added to a microplate and incubated at 37° C. for 60 min. The liquid in the wells was discarded, and the microplate was washed three times with a washing solution. A Conjugate antibody solution was added at 100 μL/well, and the resulting mixture was incubated for 30 min at 25° C. The liquid in the wells was discarded, and the microplate was washed three times with a washing solution; a substrate solution was added at 100 μL/well, and the resulting mixture was incubated for 30 min at 25° C.; the terminator was added at 50 μL/well, and the absorbance at 405 nm was detected within 30 min by using a microplate reader.
SMILES,pIC50 (human α-thrombin),"AUClast ([1]; 1 mg/kg, IV, not fasting)","Cmax ([1]; 1 mg/kg, IV, not fasting)","T1/2 ([1]; 1 mg/kg, IV, not fasting)","AUClast ([1]; 1 mg/kg, PO, fasting)","Cmax ([1]; 1 mg/kg, PO, fasting)","T1/2 ([1]; 1 mg/kg, PO, fasting)",pIC50 [2],"AUClast ([1]; 3 mg/kg, PO, fasting)","Cmax ([1]; 3 mg/kg, PO, fasting)","T1/2 ([1]; 3 mg/kg, PO, fasting)"
"C[C@H](NC(=O)[C@H]1C[C@H](Cc2ccc(F)cc2)CN1)C(=O)NC1CCc2nc(N)ccc21 (stereo partly drawn) [Compound L001, (2R,4S)—N-((2S)-1-((2-amino-6,7-dihydro-5H-cyclopenta[b]pyridin-5-yl)amino)-1-oxopropan-2-yl)-4-(4-fluorobenzyl) pyrrolidine-2-carboxamide]",< 4.30,54.837 ± 1.386 µg·h/mL,7297 ± 154 ng/mL,31.1 ± 1.27 h,9.822 ± 0.108 µg·h/mL,1483 ± 41.0 ng/mL,10.1 h,8.57,–,–,–
"C[C@H](NC(=O)[C@H]1C[C@H](Cc2ccc(F)cc2)CN1)C(=O)N[C@@H]1CCc2nc(N)ccc21 [Compound L001-IS-01, (2R,4S)—N—((S)-1-(((R)-2-amino-6,7-dihydro-5H-cyclopenta[b]pyridin-5-yl)amino)-1-oxopropan-2-yl)-4-(4-fluorobenzyl) pyrrolidine-2-carboxamide]",4.56,299.766 ± 11.465 µg·h/mL,23267 ± 1538 ng/mL,42.4 ± 3.40 h,–,–,–,9.28,188.265 ± 20.044 µg·h/mL,6070 ± 914 ng/mL,43.9 ± 8.44 h
"C[C@H](NC(=O)[C@H]1C[C@H](Cc2ccc(-c3ccccc3)cc2)CN1)C(=O)NC1CCc2nc(N)ccc21 (stereo partly drawn) [Compound L002, (2R,4S)-4-([1,1′-biphenyl]-4-ylmethyl)-N-((2S)-1-((2-amino-6,7-dihydro-5H-cyclopenta[b]pyridin-5-yl)amino)-1-oxopropan-2-yl) pyrrolidine-2-carboxamide]",< 4.30,–,–,–,–,–,–,8.61,–,–,–
"Nc1ccc2c(n1)CCC2NC(=O)[C@@H]1CCN1C(=O)[C@H]1C[C@H](Cc2ccc(-c3ccccc3)cc2)CN1 (stereo partly drawn) [Compound L027, (2S)-1-(2R,4S)-4-([1,1′-biphenyl]-4-(4-methyl)pyrrolidine-2-carbonyl)-N-(2-amino-6,7-dihydro-5H-cyclopenta[b]pyridin-5-yl) azetidine-2-carboxamide]",4.92,–,–,–,–,–,–,8.84,–,–,–
"Nc1ccc2c(n1)CCC2NC(=O)[C@@H]1CCCN1C(=O)[C@H]1C[C@H](Cc2ccc(-c3ccccc3)cc2)CN1 (stereo partly drawn) [Compound L028, (2S)-1-(2R,4S)-4-([1,1′-biphenyl]-4-(4-ylmethyl)pyrrolidine-2-carbonyl)-N-(2-amino-6,7-dihydro-5H-cyclopenta[b]pyridin-5-yl) pyrrolidine-2-carboxamide]",4.78,–,–,–,–,–,–,8.39,–,–,–
"Nc1ccc2c(n1)CCC2NC(=O)[C@@H]1CCN1C(=O)[C@H]1C[C@H](Cc2ccc(F)cc2)CN1 (stereo partly drawn) [Compound L030, (2S)—N-(2-amino-6,7-dihydro-5H-cyclopenta[b]pyridin-5-yl)-1-((2R,4S)-4-(4-fluorobenzyl)pyrrolidine-2-carbonyl) azetidine-2-carboxamide]",4.99,–,–,–,–,–,–,8.73,–,–,–
